Species on record: Rattus norvegicus
Assay: Open TG-GATES - Regimen: Single
Format: toxicity, organism-based, Sprague-Dawley
Design: regimen Single, gender Male, age 6 weeks
Details: in vivo, po, route gavage; for APTT / Bas / Eos / Fbg / Hb / Ht / Lym / MCH / MCHC / MCV / Mono / Neu / PT / Plat / RBC / Ret / WBC: tissue Blood; for KIDNEY_L / KIDNEY_R / KIDNEY_TOTAL: tissue Kidney; for LIVER: tissue Liver; for A/G / ALP / ALT / AST / BUN / CRE / Ca / Cl / DBIL / GLC / IP / K / LDH / Na / PL / RALB / TBIL / TC / TG / TP / gamma-GTP: tissue Plasma
[1] = 0 mg/kg, 3 h, dose level Control
[2] = 0 mg/kg, 6 h, dose level Control
[3] = 0 mg/kg, 9 h, dose level Control
[4] = 0 mg/kg, 24 h, dose level Control

## C[C@H]1C(=O)O[C@@H]2CCN3CC=C(COC(=O)[C@](C)(O)[C@]1(C)O)[C@H]23 [MONOCROTALINE]
[1]
  TERMINAL_BW: 217.7 g
  APTT: 20.3 s
  Bas: 0%
  Eos: 0.8%
  Fbg: 316 mg/dL
  Hb: 12.9 g/dL
  Ht: 37.7%
  Lym: 76.4%
  MCH: 21.8 pg
  MCHC: 34.2%
  MCV: 63.8 fL
  Mono: 3.2%
  Neu: 19%
  PT: 16.8 s
  Plat: 116.9 x10_4/uL
  RBC: 591.6 x10_4/ul
  Ret: 9.3%
  WBC: 86.4 x10_2/uL
  KIDNEY_L: 1 g
  KIDNEY_R: 1 g
  KIDNEY_TOTAL: 2 g
  LIVER: 10.4 g
  A/G: 1.3
  ALP: 1563.2 IU/L
  ALT: 38 IU/L
  AST: 66.8 IU/L
  BUN: 13.4 mg/dL
  CRE: 0.2 mg/dL
  Ca: 10.7 mg/dL
  Cl: 106.6 meq/L
  DBIL: 0.002 mg/dL
  GLC: 185.6 mg/dL
  IP: 8.3 mg/dL
  K: 4 meq/L
  LDH: 161 IU/L
  Na: 142.6 meq/L
  PL: 141.8 mg/dL
  RALB: 3.1 g/dL
  TBIL: 0.028 mg/dL
  TC: 78.2 mg/dL
  TG: 58.6 mg/dL
  TP: 5.4 g/dL
  gamma-GTP: 1 IU/L
[2]
  TERMINAL_BW: 200.2 g
  APTT: 20.2 s
  Bas: 0%
  Eos: 1%
  Fbg: 316 mg/dL
  Hb: 13.4 g/dL
  Ht: 39.5%
  Lym: 81%
  MCH: 21.5 pg
  MCHC: 33.9%
  MCV: 63.2 fL
  Mono: 2.8%
  Neu: 14.8%
  PT: 16.2 s
  Plat: 112.4 x10_4/uL
  RBC: 626.4 x10_4/ul
  Ret: 7.8%
  WBC: 94 x10_2/uL
  KIDNEY_L: 0.9 g
  KIDNEY_R: 0.9 g
  KIDNEY_TOTAL: 1.9 g
  LIVER: 8.5 g
  A/G: 1.3
  ALP: 1365.8 IU/L
  ALT: 37.6 IU/L
  AST: 71.6 IU/L
  BUN: 11.4 mg/dL
  CRE: 0.1 mg/dL
  Ca: 10.6 mg/dL
  Cl: 106.8 meq/L
  DBIL: 0.004 mg/dL
  GLC: 176 mg/dL
  IP: 9 mg/dL
  K: 4.2 meq/L
  LDH: 230.6 IU/L
  Na: 142.6 meq/L
  PL: 132.4 mg/dL
  RALB: 3.1 g/dL
  TBIL: 0.026 mg/dL
  TC: 75.2 mg/dL
  TG: 56 mg/dL
  TP: 5.5 g/dL
  gamma-GTP: 1.2 IU/L
[3]
  TERMINAL_BW: 207.2 g
  APTT: 19.8 s
  Bas: 0%
  Eos: 1%
  Fbg: 300.8 mg/dL
  Hb: 13.3 g/dL
  Ht: 38.8%
  Lym: 73%
  MCH: 21.4 pg
  MCHC: 34.2%
  MCV: 62.7 fL
  Mono: 2.6%
  Neu: 22.4%
  PT: 16.2 s
  Plat: 110.9 x10_4/uL
  RBC: 618.6 x10_4/ul
  Ret: 8.7%
  WBC: 92.3 x10_2/uL
  KIDNEY_L: 0.9 g
  KIDNEY_R: 1 g
  KIDNEY_TOTAL: 1.9 g
  LIVER: 8.6 g
  A/G: 1.3
  ALP: 1373.4 IU/L
  ALT: 38 IU/L
  AST: 67.8 IU/L
  BUN: 10.4 mg/dL
  CRE: 0.2 mg/dL
  Ca: 10.4 mg/dL
  Cl: 106.8 meq/L
  DBIL: 0.004 mg/dL
  GLC: 174.2 mg/dL
  IP: 9.1 mg/dL
  K: 4.1 meq/L
  LDH: 184.2 IU/L
  Na: 142 meq/L
  PL: 137 mg/dL
  RALB: 3.1 g/dL
  TBIL: 0.028 mg/dL
  TC: 83.2 mg/dL
  TG: 50.4 mg/dL
  TP: 5.4 g/dL
  gamma-GTP: 1 IU/L
[4]
  TERMINAL_BW: 221.9 g
  APTT: 22 s
  Bas: 0%
  Eos: 1%
  Fbg: 299 mg/dL
  Hb: 12.9 g/dL
  Ht: 37.9%
  Lym: 83%
  MCH: 20.8 pg
  MCHC: 34.1%
  MCV: 61.1 fL
  Mono: 2.8%
  Neu: 12.6%
  PT: 16.5 s
  Plat: 119.4 x10_4/uL
  RBC: 620.4 x10_4/ul
  Ret: 8.4%
  WBC: 85.2 x10_2/uL
  KIDNEY_L: 1 g
  KIDNEY_R: 1 g
  KIDNEY_TOTAL: 2 g
  LIVER: 10.5 g
  A/G: 1.3
  ALP: 1787.6 IU/L
  ALT: 44.4 IU/L
  AST: 74 IU/L
  BUN: 18.4 mg/dL
  CRE: 0.2 mg/dL
  Ca: 10.7 mg/dL
  Cl: 105 meq/L
  DBIL: 0.006 mg/dL
  GLC: 187.6 mg/dL
  IP: 6.8 mg/dL
  K: 4.2 meq/L
  LDH: 227.2 IU/L
  Na: 141.2 meq/L
  PL: 150.4 mg/dL
  RALB: 3.2 g/dL
  TBIL: 0.008 mg/dL
  TC: 78.2 mg/dL
  TG: 101.6 mg/dL
  TP: 5.6 g/dL
  gamma-GTP: 1 IU/L
3 mg/kg, 3 h, dose level Low
  TERMINAL_BW: 207 g
  APTT: 21.1 s
  Bas: 0%
  Eos: 0.8%
  Fbg: 296.8 mg/dL
  Hb: 13.5 g/dL
  Ht: 39.3%
  Lym: 80.4%
  MCH: 21.9 pg
  MCHC: 34.3%
  MCV: 63.9 fL
  Mono: 2.6%
  Neu: 16.6%
  PT: 16.6 s
  Plat: 121 x10_4/uL
  RBC: 615.6 x10_4/ul
  Ret: 8.9%
  WBC: 70.3 x10_2/uL
  KIDNEY_L: 0.9 g
  KIDNEY_R: 0.9 g
  KIDNEY_TOTAL: 1.8 g
  LIVER: 9.6 g
  A/G: 1.4
  ALP: 1405.4 IU/L
  ALT: 40.4 IU/L
  AST: 70.6 IU/L
  BUN: 14.4 mg/dL
  CRE: 0.1 mg/dL
  Ca: 10.6 mg/dL
  Cl: 106.4 meq/L
  DBIL: 0.002 mg/dL
  GLC: 176.6 mg/dL
  IP: 8.6 mg/dL
  K: 4.2 meq/L
  LDH: 232.4 IU/L
  Na: 142.8 meq/L
  PL: 141 mg/dL
  RALB: 3.1 g/dL
  TBIL: 0.014 mg/dL
  TC: 79.4 mg/dL
  TG: 73.8 mg/dL
  TP: 5.4 g/dL
  gamma-GTP: 1 IU/L
3 mg/kg, 6 h, dose level Low
  TERMINAL_BW: 213.3 g
  APTT: 20.6 s
  Bas: 0%
  Eos: 0.8%
  Fbg: 314 mg/dL
  Hb: 13.4 g/dL
  Ht: 39.7%
  Lym: 77.6%
  MCH: 21.3 pg
  MCHC: 33.9%
  MCV: 62.8 fL
  Mono: 2.4%
  Neu: 17.8%
  PT: 16.2 s
  Plat: 124.3 x10_4/uL
  RBC: 632.2 x10_4/ul
  Ret: 9.3%
  WBC: 86.8 x10_2/uL
  KIDNEY_L: 0.9 g
  KIDNEY_R: 0.9 g
  KIDNEY_TOTAL: 1.9 g
  LIVER: 9.9 g
  A/G: 1.3
  ALP: 1354.2 IU/L
  ALT: 40 IU/L
  AST: 67.2 IU/L
  BUN: 12.2 mg/dL
  CRE: 0.1 mg/dL
  Ca: 10.7 mg/dL
  Cl: 106 meq/L
  DBIL: 0.004 mg/dL
  GLC: 175.2 mg/dL
  IP: 9.3 mg/dL
  K: 4.5 meq/L
  LDH: 200 IU/L
  Na: 141.8 meq/L
  PL: 139.8 mg/dL
  RALB: 3.1 g/dL
  TBIL: 0.01 mg/dL
  TC: 78 mg/dL
  TG: 86.2 mg/dL
  TP: 5.4 g/dL
  gamma-GTP: 1.2 IU/L
3 mg/kg, 9 h, dose level Low
  TERMINAL_BW: 205.5 g
  APTT: 21 s
  Bas: 0%
  Eos: 0.6%
  Fbg: 291 mg/dL
  Hb: 13.3 g/dL
  Ht: 38.9%
  Lym: 79.8%
  MCH: 20.7 pg
  MCHC: 34.2%
  MCV: 60.6 fL
  Mono: 2.2%
  Neu: 16.2%
  PT: 16.4 s
  Plat: 126 x10_4/uL
  RBC: 642.2 x10_4/ul
  Ret: 8.7%
  WBC: 73.2 x10_2/uL
  KIDNEY_L: 0.9 g
  KIDNEY_R: 1 g
  KIDNEY_TOTAL: 1.9 g
  LIVER: 8.8 g
  A/G: 1.3
  ALP: 1565.2 IU/L
  ALT: 35.6 IU/L
  AST: 67 IU/L
  BUN: 12.4 mg/dL
  CRE: 0.1 mg/dL
  Ca: 10.5 mg/dL
  Cl: 106 meq/L
  DBIL: 0.006 mg/dL
  GLC: 184.4 mg/dL
  IP: 9.5 mg/dL
  K: 4 meq/L
  LDH: 197 IU/L
  Na: 142.2 meq/L
  PL: 130.6 mg/dL
  RALB: 3.1 g/dL
  TBIL: 0.02 mg/dL
  TC: 72.2 mg/dL
  TG: 48.6 mg/dL
  TP: 5.4 g/dL
  gamma-GTP: 1 IU/L
3 mg/kg, 24 h, dose level Low
  TERMINAL_BW: 217.7 g
  APTT: 20.9 s
  Bas: 0%
  Eos: 1%
  Fbg: 305 mg/dL
  Hb: 13.2 g/dL
  Ht: 38.8%
  Lym: 80.6%
  MCH: 20.5 pg
  MCHC: 34.1%
  MCV: 60.3 fL
  Mono: 2.6%
  Neu: 15%
  PT: 16.2 s
  Plat: 117.2 x10_4/uL
  RBC: 645.2 x10_4/ul
  Ret: 7.7%
  WBC: 97.3 x10_2/uL
  KIDNEY_L: 1 g
  KIDNEY_R: 1 g
  KIDNEY_TOTAL: 2 g
  LIVER: 10.4 g
  A/G: 1.3
  ALP: 1841.2 IU/L
  ALT: 43.6 IU/L
  AST: 70.2 IU/L
  BUN: 16.4 mg/dL
  CRE: 0.1 mg/dL
  Ca: 10.8 mg/dL
  Cl: 106.4 meq/L
  DBIL: 0.006 mg/dL
  GLC: 178 mg/dL
  IP: 7.6 mg/dL
  K: 4.2 meq/L
  LDH: 220.2 IU/L
  Na: 142.2 meq/L
  PL: 160.2 mg/dL
  RALB: 3.2 g/dL
  TBIL: 0.006 mg/dL
  TC: 81.2 mg/dL
  TG: 102.8 mg/dL
  TP: 5.6 g/dL
  gamma-GTP: 1 IU/L

Source: ChEMBL document CHEMBL3885861, “Open TG-GATES”
